# Test results as given in BindingDB's records for patent US20240059675 (Boehringer Ingelheim International, 2024).
# Key:
# [1] = target: Glutaminyl-peptide cyclotransferase (Homo sapiens, UniProt Q16769); assay: Biochemical QPCT and QPCTL Activity Assay
# [2] = target: Glutaminyl-peptide cyclotransferase-like protein (Homo sapiens, UniProt Q9NXS2); assay: Biochemical QPCT and QPCTL Activity Assay
# Sequence of Glutaminyl-peptide cyclotransferase-like protein (Q9NXS2 whole entry): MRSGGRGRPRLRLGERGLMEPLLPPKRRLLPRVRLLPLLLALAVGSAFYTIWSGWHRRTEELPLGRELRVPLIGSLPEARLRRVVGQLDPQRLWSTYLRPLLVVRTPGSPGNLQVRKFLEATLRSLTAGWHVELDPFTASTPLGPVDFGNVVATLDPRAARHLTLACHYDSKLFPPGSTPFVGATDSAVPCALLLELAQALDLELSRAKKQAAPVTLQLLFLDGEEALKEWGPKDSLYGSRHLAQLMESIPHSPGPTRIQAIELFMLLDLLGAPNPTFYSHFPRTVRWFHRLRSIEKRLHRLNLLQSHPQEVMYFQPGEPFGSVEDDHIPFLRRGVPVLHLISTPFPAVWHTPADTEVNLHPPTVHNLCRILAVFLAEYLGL
# Sequence of Glutaminyl-peptide cyclotransferase (Q16769 whole entry): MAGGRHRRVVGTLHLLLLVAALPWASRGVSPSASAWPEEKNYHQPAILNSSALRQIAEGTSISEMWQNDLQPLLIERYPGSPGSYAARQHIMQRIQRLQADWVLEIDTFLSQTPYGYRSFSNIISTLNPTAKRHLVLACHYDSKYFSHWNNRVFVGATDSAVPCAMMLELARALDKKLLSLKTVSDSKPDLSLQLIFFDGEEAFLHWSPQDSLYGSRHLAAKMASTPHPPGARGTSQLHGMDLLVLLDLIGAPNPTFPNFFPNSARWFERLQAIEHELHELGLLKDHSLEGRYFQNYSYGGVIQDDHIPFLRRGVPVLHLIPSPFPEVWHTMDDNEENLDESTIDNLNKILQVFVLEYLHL
IC50 [2],SMILES,IC50 [1]
–,"Cn1cnnc1C1(F)CCN(c2c(C#N)ccnc2-c2ccc(F)nc2)CC1 [US20240059675, Example 1]",4 nM
1 nM,"Cn1cnnc1C1(F)CCN(c2c(C#N)ccnc2-c2cnc(F)c(OCC3CC3)c2)CC1 [US20240059675, Example 26]",–
2 nM,"Cn1cnnc1C1(F)CCN(c2c(C#N)ccnc2-c2cnc3nn(C(C)(C)C(F)(F)F)cc3c2)CC1 [US20240059675, Example 29]",3 nM
